One compound from patent publication US9675580B2, “Method of treatment for enhancing exercise performance” (priority 2012, dated 2017) can be followed below.

The subject of assay [1] is ICR mice. Kind of assay: Treadmill run to exhaustion (endurance exercise capacity). The assay is classed as in vivo, mouse. To be noted: 50 mg/kg oral daily for two weeks, vs phosphate buffered saline control, p<0.0005, FIG. 1. On the procedure:
Ten 8-week-old ICR mice were purchased from KOATECH, precultured for 1 week, and then divided into two groups, each group having five mice. The first group was set up as a negative control by administering phosphate buffered saline, and to the second group, myricetin was orally administered daily at a concentration of 50 mg/kg for two weeks. To measure a change in endurance exercise capacity due to myricetin, the animals in the negative control and the myricetin-administered group were run on a treadmill (Panlab&Harvard, Spain). An exercise performance protocol was configured to make the mice run until exhaustion at 25 cm/sec for 20 minutes, 30 cm/sec for 20 minutes, 33 cm/sec for 20 minutes, 36 cm/sec for 20 minutes and 36 cm/sec for 15 minutes with a gradient of 5°, and 30 cm/sec for 15 minutes and 41 cm/sec with a gradient of 10°. To adapt the mice to running on the treadmill, the day before the experiment, they were run at 27 cm/sec for 10 minutes with a gradient of 5°. The mice were not fed for two hours before the running on the treadmill on the day of the experiment, and then the maximum exercise capacity of the experimental animals was measured after the running on the treadmill. […]

Assay [2] has as its system ICR-series mice. Description: Grip strength test (maximum muscle strength). The following applies: 50 mg/kg oral daily for two weeks, vs negative control, p<0.005 / p<0.00005, FIGS. 2A and 2B. The assay is classed as in vivo, mouse. The method, then: To measure an effect of myricetin on enhancing endurance exercise capacity of a mouse, ten 8-week-old ICR-series mice having a body weight of 30±5 g were used. As described in Example 1, the experimental animals were divided into two groups. The first group was determined as a negative control, and to the second group, myricetin was orally administered daily at a concentration of 50 mg/kg for two weeks. To measure a change in the maximum strength of a muscle due to myricetin, a grip strength test (Bioseb, France) was performed on the animals in the control group and the myricetin-administered group. Maximum grip strengths of the front paws and rear paws were measured by pulling a tail of the mouse backward while the mouse grabbed a grip strength tester. The grip strength was measured three times, and an average value was used.

For assay [3], the system named is ICR mice. Kind of assay: Rotarod test (sensorimotor function). The assay is classed as in vivo, mouse. To be noted: 50 mg/kg oral daily for 2 weeks, 4 to 40 rpm, vs negative control, p<0.005, FIG. 3. On the procedure:
To confirm an effect of myricetin on a sensorimotor function of a mouse, 8-week-old ICR mice were purchased from KOATECH, precultured for 1 week, and divided into two groups, each group having 5 mice. As described in Example 1, the experimental animals were divided into two groups, and then the first group was determined as a negative control, and to the second group, myricetin was orally administered daily at a concentration of 50 mg/kg using a 1 ml syringe for 2 weeks.
To measure an effect of myricetin on the sensorimotor function, a rotarod test (Panlab&Harvard, Spain) was performed on the mice in the control group and the myricetin-administered group. The rotarod test was performed to measure motor coordination (exercise adaptation) and a sense of balance of the animal (Michel Pratte et al., Behavioural brain research 216:313-320, 2011; Medina R. et al., FEBS Lett. 180(1): 77-80, 1985).
A tail of the mouse was put on a rotarod, and a speed of the rotarod was increased from 4 to 40 rpm within 5 minutes by an increase of 4 rpm at 30-second intervals. The time during which the mouse stayed on the rotarod was measured. The experiment was repeated five times, and the time during which the mouse stayed the longest on the rotarod was used as a result value.
(The rotarod test checks motor coordination on a turning rod.)

For assay [4], the system named is SIRT-1 gene. Description: Real time PCR gene expression in mouse myotube: SIRT-1. The assay is classed as cell-based. The following applies: C2C12 myotubes, 10, 30 and 100 μM, 16 hours, corrected with β-actin, FIG. 4D. The method, then:
(§1) Mouse myoblasts were purchased from the Korean Cell Line Bank (KCLB), and base sequences of primers for β-actin, SIRT-1, PGC-1α, NRF-1 and PPAR-δ genes were as follows:
(§2) 1×10^7 C2C12 (mouse myoblasts) differentiated into myotubes using 2% horse serum […]. The mouse myotube was treated with myricetin by concentration and cultured for 16 hours, RNA was extracted from the myotube using TRizol, and then cDNA was synthesized through reverse transcription PCR (RT-PCR).
(§3) Real time PCR was performed using β-actin as a control and the primers for respective genes (95° C. for 3 minutes, <95° C. for 10 seconds, 60° C. for 10 seconds, 72° C. for 30 seconds>−39 cycles, 95° C. for 10 seconds, 65° C. for 5 seconds). The PGC-1α, NRF-1, PPAR-δ, and SIRT-1 were corrected with the β-actin, and the resulting value was obtained.
On the technique in general: In qPCR the cycle at which signal appears reflects the starting amount.

The test system of assay [5] is PGC-1α gene. Description: Real time PCR gene expression in mouse myotube: PGC-1α. To be noted: C2C12 myotubes, 10, 30 and 100 μM, 16 hours, corrected with β-actin, FIG. 4A. The assay is classed as cell-based. On the procedure: as §1, §2, §3
Assay [6] deals with NRF-1 gene. Kind of assay: Real time PCR gene expression in mouse myotube: NRF-1. The assay is classed as cell-based. The following applies: C2C12 myotubes, 10, 30 and 100 μM, 16 hours, corrected with β-actin, FIG. 4B. The method, then:
as §1, §2, §3

Assay [7] concerns PPAR-δ gene. Kind of assay: Real time PCR gene expression in mouse myotube: PPAR-δ. The assay is classed as cell-based. To be noted: C2C12 myotubes, 10, 30 and 100 μM, 16 hours, corrected with β-actin, FIG. 4C. On the procedure: as §1, §2, §3
The nature of assay [8]: Change in body weight of SD rats. The assay is classed as in vivo, rat. The following applies: 50 mg/kg for 5 days, 225 g before administration, control group 285 g, FIG. 5A. On the procedure: 7-week-old SD rats were purchased from KOATECH, precultured for 1 week, and randomly divided into two groups, each group having 5 rats. First, 50 mg/kg of myricetin was administered into the test group, and phosphate buffered saline was administered into the control group for 5 days. A change in body weight was measured using an electric measure (CAS, China). Before administration, the body weights of the rats in each group were the same as 225 g on average, but after the end of the experiment, the body weights of the rats in the control group were 285 g on average, and the body weights of the rats in the myricetin-administered group were 275 g on average (FIG. 5A).

The nature of assay [9]: Daily food intake of SD rats (action metabolism meter). The following applies: 50 mg/kg for 5 days, FIG. 5B. The assay is classed as in vivo, rat. On the procedure: 7-week-old SD rats were purchased from KOATECH, precultured for 1 week, and randomly divided into two groups, each group having 5 rats. First, 50 mg/kg of myricetin was administered into the test group, and phosphate buffered saline was administered into the control group for 5 days. The investigation of food intake was performed by automatically measuring the daily food intake of the phosphate buffered saline-administered mouse and the myricetin-administered mouse using an action metabolism meter (Panlab&Harvard, Spain). The average food intake was determined as an average food intake of each of the five rats in one group.

The structures appear in SMILES notation.

`O=c1c(O)c(-c2cc(O)c(O)c(O)c2)oc2cc(O)cc(O)c12` [myricetin, 3,5,7-trihydroxy-2-(3,4,5-trihydroxyphenyl)-4-chromenone]: the “time run on the treadmill until exhaustion (maximum exercise capacity)” value in [1] is given as “longer”. Besides, in [2], the “maximum grip strength of front paws and rear paws (maximum muscle strength)” value is recorded as “increased”. Moreover, the “time during which the mouse stayed on the rotarod” value in [3] is “longer”. The “expression of SIRT-1 compared to the control group” value in assay [4] is given as “increased two to three times”. Moreover, the “expression of PGC-1α compared to the control group” value in assay [5] is listed as “increased two to three times”. Moreover, in assay [6], the “expression of NRF-1 compared to the control group” value is “increased two to three times”. Further, in [7], the “expression of PPAR-δ compared to the control group” value is “increased two to three times”. Moreover, in assay [8], the “body weight on average after the end of the experiment” value was 275 g. In addition, the “average daily food intake vs phosphate buffered saline-administered group” value in [9] is “smaller”.
